Where “and” joins values, the source holds several entries; their conditions need not be identical. Identical values can stand only once. Inconclusive results and toxic doses are left out.
Test system: L1210 leukemia ip in BDF1 mice, survival T/C
Assay: NCI In Vivo Anticancer Drug Screen. Data for tumor model L1210 Leukemia (intraperitoneal) in B6D2F1 (BDF1) mice
Conditions: endpoint: mean survival time, higher = longer survival
Outline: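 In this screen, tumor-bearing mice given compound are compared to those given vehicle, and their survival values are reported as a treated-to-control quotient.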

[1] = dose: 100.0 mg/kg/injection, schedule: Q01DX001 (ip), vehicle: saline with Tween-80
[2] = dose: 100.0 mg/kg/injection, schedule: Q01DX009 (ip), vehicle: saline with Tween-80
[3] = dose: 100.0 mg/kg/injection, schedule: Q04DX002 (ip), vehicle: saline with Tween-80
[4] = dose: 100.0 mg/kg/injection, schedule: Q04DX003 (ip), vehicle: saline with Tween-80
[5] = dose: 200.0 mg/kg/injection, schedule: Q01DX001 (ip), vehicle: saline with Tween-80
[6] = dose: 200.0 mg/kg/injection, schedule: Q01DX009 (ip), vehicle: saline with Tween-80
[7] = dose: 200.0 mg/kg/injection, schedule: Q04DX002 (ip), vehicle: saline with Tween-80
[8] = dose: 200.0 mg/kg/injection, schedule: Q04DX003 (ip), vehicle: saline with Tween-80
[9] = dose: 400.0 mg/kg/injection, schedule: Q01DX001 (ip), vehicle: saline with Tween-80
[10] = dose: 400.0 mg/kg/injection, schedule: Q01DX009 (ip), vehicle: saline with Tween-80
[11] = dose: 400.0 mg/kg/injection, schedule: Q04DX002 (ip), vehicle: saline with Tween-80
[12] = dose: 400.0 mg/kg/injection, schedule: Q04DX003 (ip), vehicle: saline with Tween-80
[13] = dose: 50.0 mg/kg/injection, schedule: Q01DX001 (ip), vehicle: saline
[14] = dose: 100.0 mg/kg/injection, schedule: Q01DX001 (ip), vehicle: saline
[15] = dose: 200.0 mg/kg/injection, schedule: Q01DX001 (ip), vehicle: saline
[16] = dose: 400.0 mg/kg/injection, schedule: Q01DX001 (ip), vehicle: saline
[17] = dose: 100.0 mg/kg/injection, schedule: Q04DX003 (ip), vehicle: Klucel (hydroxypropylcellulose) (HPC)
[18] = dose: 200.0 mg/kg/injection, schedule: Q04DX003 (ip), vehicle: Klucel (hydroxypropylcellulose) (HPC)
[19] = dose: 400.0 mg/kg/injection, schedule: Q04DX003 (ip), vehicle: Klucel (hydroxypropylcellulose) (HPC)
[20] = dose: 50.0 mg/kg/injection, schedule: Q01DX009 (ip), vehicle: saline with Tween-80
[21] = dose: 100.0 mg/kg/injection, schedule: Q04DX002 (ip), vehicle: Klucel (hydroxypropylcellulose) (HPC)
[22] = dose: 200.0 mg/kg/injection, schedule: Q04DX002 (ip), vehicle: Klucel (hydroxypropylcellulose) (HPC)
[23] = dose: 100.0 mg/kg/injection, schedule: Q01DX009 (ip), vehicle: Klucel (hydroxypropylcellulose) (HPC)
[24] = dose: 200.0 mg/kg/injection, schedule: Q01DX009 (ip), vehicle: Klucel (hydroxypropylcellulose) (HPC)
[25] = dose: 400.0 mg/kg/injection, schedule: Q01DX009 (ip), vehicle: Klucel (hydroxypropylcellulose) (HPC)

## CCOc1ccc(NC(=O)Oc2ccc(C(=O)OC)cc2)cc1
[1]
  T/C: 93 % of control
[2]
  T/C: 101 % of control and 103 % of control
[3]
  T/C: 103 % of control and 92 % of control
[4]
  T/C: 105 % of control
[5]
  T/C: 91 % of control
[6]
  T/C: 100 % of control and 103 % of control
[7]
  T/C: 95 % of control and 92 % of control
[8]
  T/C: 103 % of control
[9]
  T/C: 91 % of control
[10]
  T/C: 93 % of control and 94 % of control
[11]
  T/C: 103 % of control
[12]
  T/C: 105 % of control

## CC1([N+](=O)[O-])COP(=O)(Nc2ccccc2)OC1 (stereo not given)
[13]
  T/C: 96 % of control
[14]
  T/C: 98 % of control
[15]
  T/C: 93 % of control
[16]
  T/C: 110 % of control

## CCCCCCCCCCCC(=O)NC(=S)Nc1ccc(C)c(C)c1
dose: 50.0 mg/kg/injection, schedule: Q01DX001 (ip), vehicle: saline with Tween-80
  T/C: 86 % of control
[1]
  T/C: 91 % of control
[2]
  T/C: 90 % of control and 91 % of control
[3]
  T/C: 103 % of control and 91 % of control
[4]
  T/C: 93 % of control
[6]
  T/C: 103 % of control and 105 % of control
[7]
  T/C: 94 % of control and 88 % of control
[8]
  T/C: 90 % of control
[11]
  T/C: 94 % of control and 91 % of control
[12]
  T/C: 88 % of control

## Cc1cc[n+](C)c2ccccc12
dose: 9.37 mg/kg/injection, schedule: Q01DX009 (ip), vehicle: saline with Tween-80
  T/C: 101 % of control
dose: 18.75 mg/kg/injection, schedule: Q01DX009 (ip), vehicle: saline with Tween-80
  T/C: 112 % of control
dose: 37.5 mg/kg/injection, schedule: Q01DX009 (ip), vehicle: saline with Tween-80
  T/C: 100 % of control
dose: 37.5 mg/kg/injection, schedule: Q04DX003 (ip), vehicle: saline
  T/C: 100 % of control
dose: 75.0 mg/kg/injection, schedule: Q01DX001 (ip), vehicle: saline
  T/C: 103 % of control

## Nc1nc2nc(-c3ccccc3)[nH]c2c(=O)[nH]1
[17]
  T/C: 98 % of control
[18]
  T/C: 101 % of control
[19]
  T/C: 93 % of control

## CCN(/C=C1/SC(=S)NC1=O)CC
[20]
  T/C: 109 % of control
[2]
  T/C: 98 % of control
[6]
  T/C: 119 % of control

## CCCCCCCCCCCCCCCc1cc(=O)n(-c2cccc([N+](=O)[O-])c2)n1C
[17]
  T/C: 96 % of control
[18]
  T/C: 94 % of control
[19]
  T/C: 92 % of control

## NCCSC(C[N+](=O)[O-])c1ccc2c(c1)OCO2 (stereo not given)
[4]
  T/C: 93 % of control
[8]
  T/C: 98 % of control

## Cc1cccc(C)c1OC(=O)Nc1ccccc1
[21]
  T/C: 101 % of control
[22]
  T/C: 97 % of control
dose: 400.0 mg/kg/injection, schedule: Q04DX002 (ip), vehicle: Klucel (hydroxypropylcellulose) (HPC)
  T/C: 101 % of control

## O=C(O)c1cc[c]([Hg][S]c2ncnc3nc[nH]c23)cc1
dose: 6.0 mg/kg/injection, schedule: Q01DX Z (ip), vehicle: carboxymethylcellulose (CMC)
  T/C: 105 % of control
dose: 6.25 mg/kg/injection, schedule: Q01DX015 (ip), vehicle: saline
  T/C: 110 % of control
dose: 12.0 mg/kg/injection, schedule: Q01DX Z (ip), vehicle: carboxymethylcellulose (CMC)
  T/C: 116 % of control
dose: 16.5 mg/kg/injection, schedule: Q01DX009 (ip), vehicle: saline
  T/C: 118 % of control
dose: 25.0 mg/kg/injection, schedule: Q01DX015 (ip), vehicle: saline
  T/C: 164 % of control
dose: 50.0 mg/kg/injection, schedule: Q01DX Z (ip), vehicle: carboxymethylcellulose (CMC)
  T/C: 103 % of control
dose: 100.0 mg/kg/injection, schedule: Q01DX Z (ip), vehicle: carboxymethylcellulose (CMC)
  T/C: 114 % of control

## CCCCC(=O)N1CCCC(C)C1 (stereo not given)
[21]
  T/C: 105 % of control

## O=S(NOCc1ccccc1)c1ccc(Cl)cc1 (stereo not given)
[23]
  T/C: 93 % of control
[24]
  T/C: 102 % of control
[25]
  T/C: 93 % of control

## O=C(NC1c2cc(Cl)ccc2-c2c(Cl)cc(Cl)cc21)C12CC3CC(CC(C3)C1)C2 (stereo not given)
[23]
  T/C: 96 % of control
[17]
  T/C: 100 % of control
[24]
  T/C: 97 % of control
[18]
  T/C: 93 % of control
[25]
  T/C: 104 % of control
[19]
  T/C: 96 % of control

## COC(c1ccccc1)(c1ccccc1)C(C)O (stereo not given)
[20]
  T/C: 87 % of control
[2]
  T/C: 97 % of control
[6]
  T/C: 103 % of control

## Cc1c(Cl)ccc2c(C(=O)NN)cc(-c3ccc(Cl)cc3)nc12
[1]
  T/C: 92 % of control
[5]
  T/C: 97 % of control
[9]
  T/C: 97 % of control

## CNc1nc(=O)n(C2CCCO2)cc1C (stereo not given)
[14]
  T/C: 90 % of control
[15]
  T/C: 98 % of control
[16]
  T/C: 95 % of control

## CC1(C)/C(=C\S(=O)(=O)O)C2CCC1C2 (stereo not given)
[14]
  T/C: 105 % of control
dose: 100.0 mg/kg/injection, schedule: Q04DX003 (ip), vehicle: saline
  T/C: 110 % of control
[15]
  T/C: 105 % of control
dose: 200.0 mg/kg/injection, schedule: Q04DX003 (ip), vehicle: saline
  T/C: 98 % of control
[16]
  T/C: 103 % of control
dose: 400.0 mg/kg/injection, schedule: Q04DX003 (ip), vehicle: saline
  T/C: 101 % of control

## CC1=CC2=C(C(=O)C1=O)C(C)CCC2C(C)C (stereo not given)
[14]
  T/C: 98 % of control
[15]
  T/C: 94 % of control

## CC(=O)Nc1c(C)cc(Cl)cc1Cl
dose: 25.6 mg/kg/injection, schedule: Q04DX002 (ip), vehicle: saline with Tween-80
  T/C: 95 % of control
dose: 64.0 mg/kg/injection, schedule: Q04DX002 (ip), vehicle: saline with Tween-80
  T/C: 95 % of control
[2]
  T/C: 91 % of control
[4]
  T/C: 91 % of control
dose: 160.0 mg/kg/injection, schedule: Q04DX002 (ip), vehicle: saline with Tween-80
  T/C: 95 % of control
[6]
  T/C: 89 % of control
[8]
  T/C: 95 % of control
[10]
  T/C: 96 % of control
[11]
  T/C: 98 % of control
[12]
  T/C: 98 % of control

## O=C1c2cccc3cccc(c23)C(=O)N1CCCCCCCCN1C(=O)c2cccc3cccc(c23)C1=O
[21]
  T/C: 88 % of control
[22]
  T/C: 101 % of control

## Cc1ccc(S(=O)(=O)N(CCCc2ccccc2)c2ccc(C(=O)NC(CCC(=O)O)C(=O)O)cc2)cc1 (stereo not given)
dose: 75.0 mg/kg/injection, schedule: Q01DX001 (ip), vehicle: gum acacia
  T/C: 101 % of control
dose: 150.0 mg/kg/injection, schedule: Q01DX001 (ip), vehicle: gum acacia
  T/C: 107 % of control
dose: 300.0 mg/kg/injection, schedule: Q01DX001 (ip), vehicle: gum acacia
  T/C: 93 % of control

## COc1ccc(C2NC(=O)CCC2N)cc1OC (stereo not given)
[1]
  T/C: 99 % of control
[5]
  T/C: 101 % of control
[9]
  T/C: 95 % of control

## CC1(C)N=C(N)N=C(N)N1c1ccc(C(F)(F)F)cc1
dose: 25.0 mg/kg/injection, schedule: Q01DX001 (ip), vehicle: saline
  T/C: 107 % of control
[13]
  T/C: 117 % of control
[14]
  T/C: 103 % of control and 107 % of control

## C1CSCSC1
dose: 12.5 mg/kg/injection, schedule: Q01DX009 (ip), vehicle: Klucel (hydroxypropylcellulose) (HPC)
  T/C: 100 % of control
dose: 12.5 mg/kg/injection, schedule: Q04DX003 (ip), vehicle: Klucel (hydroxypropylcellulose) (HPC)
  T/C: 101 % of control
dose: 25.0 mg/kg/injection, schedule: Q01DX009 (ip), vehicle: Klucel (hydroxypropylcellulose) (HPC)
  T/C: 95 % of control
dose: 25.0 mg/kg/injection, schedule: Q04DX003 (ip), vehicle: Klucel (hydroxypropylcellulose) (HPC)
  T/C: 97 % of control
dose: 50.0 mg/kg/injection, schedule: Q04DX003 (ip), vehicle: Klucel (hydroxypropylcellulose) (HPC)
  T/C: 100 % of control

## Cc1cc(N(CCOS(C)(=O)=O)CCOS(C)(=O)=O)ccc1C=Nc1ccc(-c2csc(COc3ccccc3)n2)cc1
dose: 66.0 mg/kg/injection, schedule: Q04DX003 (ip), vehicle: Klucel (hydroxypropylcellulose) (HPC)
  T/C: 116 % of control
[17]
  T/C: 98 % of control
dose: 125.0 mg/kg/injection, schedule: Q04DX003 (ip), vehicle: Klucel (hydroxypropylcellulose) (HPC)
  T/C: 158 % of control
dose: 150.0 mg/kg/injection, schedule: Q04DX003 (ip), vehicle: Klucel (hydroxypropylcellulose) (HPC)
  T/C: 154 % of control
[18]
  T/C: 151 % of control

— PubChem BioAssay AID248 (DTP/NCI, 2004)
